The values that follow come from patent publication US20120015887A1, “SYNTHETIC PEPTIDE AND USES THEREOF” (priority 2009, published 2012).

For data set [1] the following is noted: in vivo.
A short description of data set [2]: Body weight, spleen weight and tolerability in Kunming mice with transplanted H22 tumor. As to conditions: for Weight of spleen / Average weight (X ± S, g) End / Average weight (X ± S, g) Start: 2 mg/kg, ip × 5; for Weight of spleen: end of test; for Average weight (X ± S, g) End: End of test; for Average weight (X ± S, g) Start: Start of test.
The mark [3] stands for this setting: The 3rd day after administration, 2 mg/kg ip.
Setting [4] is: The 5th day after administration, 2 mg/kg ip.
The mark [5] stands for this setting: The 7th day after administration, 2 mg/kg ip.
[6] abbreviates: The 9th day after administration, 2 mg/kg ip.
The mark [7] stands for this setting: The 11th day after administration, 2 mg/kg ip.

SMILES strings stand for the structures. Bridge positions count the residues as written; N and C are the ends. Side chains are listed from the residue outwards. Peptide text beside a SMILES is read from it. I, II: the chains in the order shown.

For the compound `C[C@@H](O)[C@H](N)C(=O)N[C@@H](CCCCN)C(=O)N1CCC[C@H]1C(=O)N[C@@H](CCCNC(=N)N)C(=O)NCCCC[C@H](NC(=O)[C@H](CCCNC(=N)N)NC(=O)[C@@H]1CCCN1C(=O)[C@H](CCCCN)NC(=O)[C@@H](N)[C@@H](C)O)C(=O)NCCCC[C@H](NC(=O)[C@H](CCCCNC(=O)[C@H](CCCNC(=N)N)NC(=O)[C@@H]1CCCN1C(=O)[C@H](CCCCN)NC(=O)[C@@H](N)[C@@H](C)O)NC(=O)[C@H](CCCNC(=N)N)NC(=O)[C@@H]1CCCN1C(=O)[C@H](CCCCN)NC(=O)[C@@H](N)[C@@H](C)O)C(=O)O` [(TKPR)4>K2>K, reference compound] (I: H-TKPRK([Arg-Pro-Lys-Thr])K-OH / II: H-TKPRK([Arg-Pro-Lys-Thr]); amide I:6-II:C), in data set [1], the “Abnormity or side effect in test chickens” value (shortened to “Abnormity or side effect”) was “no abnormity or side effect”.

On to `C[C@@H](O)[C@H](N)C(=O)N[C@@H](CCCCN)C(=O)N1CCC[C@H]1C(=O)N[C@@H](CCCNC(=N)N)C(=O)NCCCC[C@H](NC(=O)[C@H](CCCNC(=N)N)NC(=O)[C@@H]1CCCN1C(=O)[C@H](CCCCN)NC(=O)[C@@H](N)[C@@H](C)O)C(=O)NCCCC[C@H](NC(=O)[C@H](CCCCNC(=O)[C@H](CCCNC(=N)N)NC(=O)[C@@H]1CCCN1C(=O)[C@H](CCCCN)NC(=O)[C@@H](N)[C@@H](C)O)NC(=O)[C@H](CCCNC(=N)N)NC(=O)[C@@H]1CCCN1C(=O)[C@H](CCCCN)NC(=O)[C@@H](N)[C@@H](C)O)C(=O)NCC(=O)O` [(TKPR)4>K2>K-G] (I: H-TKPRK([Arg-Pro-Lys-Thr])KG-OH / II: H-TKPRK([Arg-Pro-Lys-Thr]); amide I:6-II:C), for which the “Body weight growth compared with the blank control group” value in data set [2] (2 mg/kg ip, test duration) is “the same as that of the blank control group”. The “Death / acute toxicity in tumor-bearing mice” value in data set [2] (2 mg/kg ip, test duration) is given as “no acute toxicity reactions occurred”. Besides, the “Side effect in tumor-bearing mice” value in data set [2] (2 mg/kg ip, test duration) is “no obvious side effect”. The same compound came in with a Weight of spleen in data set [2] of 0.31 ± 0.08 g. In addition, in data set [2], the “Average weight (X ± S, g) End” value amounted to 30.6 ± 3.2 g. For the same compound, the “Average weight (X ± S, g) Start” value in data set [2] was 14.8 ± 0.8 g. Besides, the Body weight/g amounted to 19.6 ± 0.8 g in data set [2] (setting [3]); 23.3 ± 1.0 g in data set [2] (setting [4]); 26.2 ± 1.9 g in data set [2] (setting [5]); 28.5 ± 2.5 g in data set [2] (setting [6]); 30.6 ± 3.2 g in data set [2] (setting [7]); 14.8 ± 0.8 g in data set [2] (The day without administration). For the same compound, in data set [1], the “Abnormity or side effect” value is given as “no abnormity or side effect”.

In the case of `C[C@@H](O)[C@H](N)C(=O)N[C@@H](CCCCN)C(=O)N1CCC[C@H]1C(=O)N[C@@H](CCCNC(=N)N)C(=O)NCCCC[C@H](NC(=O)[C@H](CCCNC(=N)N)NC(=O)[C@@H]1CCCN1C(=O)[C@H](CCCCN)NC(=O)[C@@H](N)[C@@H](C)O)C(=O)NCCCC[C@H](NC(=O)[C@H](CCCCNC(=O)[C@H](CCCNC(=N)N)NC(=O)[C@@H]1CCCN1C(=O)[C@H](CCCCN)NC(=O)[C@@H](N)[C@@H](C)O)NC(=O)[C@H](CCCNC(=N)N)NC(=O)[C@@H]1CCCN1C(=O)[C@H](CCCCN)NC(=O)[C@@H](N)[C@@H](C)O)C(=O)N[C@H](C(=O)N[C@@H](CCCCN)C(=O)N1CCC[C@H]1C(=O)N[C@@H](CCCNC(=N)N)C(=O)O)[C@@H](C)O` [(TKPR)4>K2>K-TKPR] (I: H-TKPRK([Arg-Pro-Lys-Thr])KTKPR-OH / II: H-TKPRK([Arg-Pro-Lys-Thr]); amide I:6-II:C), in data set [1], the “Abnormity or side effect” value is recorded as “no abnormity or side effect”.

`C[C@@H](O)[C@H](N)C(=O)N[C@@H](CCCCN)C(=O)N1CCC[C@H]1C(=O)N[C@@H](CCCNC(=N)N)C(=O)O` [TKPR, Thr-Lys-Pro-Arg, reference compound] (H-TKPR-OH) came in with a Weight of spleen in data set [2] of 0.32 ± 0.09 g. The “Average weight (X ± S, g) End” value in data set [2] was determined as 29.6 ± 1.7 g. In data set [2], the “Average weight (X ± S, g) Start” value came out at 15.2 ± 0.7 g. Further, the Body weight/g in data set [2] (setting [3]) is 18.9 ± 0.7 g; in data set [2] (setting [4]), 21.5 ± 1.1 g; in data set [2] (setting [5]), 24.4 ± 1.3 g; in data set [2] (setting [6]), 27.0 ± 1.5 g; in data set [2] (setting [7]) it was 29.6 ± 1.7 g; in data set [2] (The day without administration), 15.2 ± 0.7 g.
